# Experiments:
# [1] = system: human islets; experiment: Intra-islet calcium concentration; format: cell-based; conditions: Tac−, Tac+AAGP groups
# Method: Various electrophysiology studies were performed on human islets to elucidate a potential mechanism of action for the AAGP™ by characterizing the CNI-related injury and its avoidance.
# [2] = system: human islets transplanted under the kidney capsule; experiment: Long-term graft function of minimal mass human islet transplant (blood glucose, IPGTT, graft insulin content); format: in vivo, immunodeficient mice
# Description: Eight to 12 week immunodeficient mice (B6.129S7-Rag1^tm1Mom) are obtained from the Jackson Laboratory (Bar Harbor, ME, USA) and housed under specific pathogen-free conditions with access to food and water ad libitum. Animals are cared for according to the guidelines of the Canadian Council on Animal Care, and ethical approval is obtained from the animal welfare committee at the University of Alberta.
# Animals are considered diabetic after two consecutive blood glucose measurements are documented≥18 mmol/L.
# Ten animals per group received approximately 1,000 IEQ human islets transplanted under the capsule of the left kidney as described previously (19).
# Non-fasting blood glucose is monitored in the remaining 7 mice per group three times a week using a portable glucometer (OneTouch Ultra 2, LifeScan, Canada) over 60 days. Normoglycemia is defined when two consecutive readings are below 11.3 mmol/L.
# Intraperitoneal Glucose-Tolerance Tests (IPGTT) are conducted 60 days post-transplant to evaluate the capacity of islets to respond to a glucose bolus (3 g/kg) after overnight fast. Blood glucose levels are monitored at baseline (Time 0, 15, 30, 60, 90 and 120 minutes post-injection). All results are compared to blood glucose profiles of naive control mice.
# Non-fasting blood glucose levels are recorded for 1 week following nephrectomy. Likewise, the native pancreas is excised at the terminal endpoint, fixed in 10% formalin and analyzed with immunohistochemistry to confirm absence of mouse insulin staining, thus, eliminating residual or regeneration of native pancreatic beta cell function.
# Preserved grafts are then processed as previously described and residual insulin content is determined using human insulin ELISA as a measure of surviving islets.
# [3] = system: syngeneic islet transplant; experiment: Syngeneic full mass islet transplant with continuous tacrolimus treatment; format: in vivo, mouse
# Description: FIG. 11 illustrates the post-transplant graft function in immunodefficient mice receiving minimal human islet mass (˜1000 IEQ). Islets were previously treated with AAGP™ and tracrolimus accordingly. […] The dotted line indicates graft recovery nephrectomy on day 60. B. Intraperitoneal glucose tolerance test (IPGTT) to evaluate metabolic response after receiving a glucose bolus. C. Insulin content of removed grafts after 60 days of transplant as an indication of residual islet mass. Data points represent mean±SEM adjusted per gram of tissue, (Tac− n=6, Tac+ n=3 and Tac+AAGP™ n=7), *p<0.05, **p<0.01 and ***p<0.001. D and E. Post-transplant graft function in mice receiving syngeneic full mass (˜500 IEQ) islet transplant. AAGP™ was added to the culture media 1 hour prior to transplant and tacrolimus was administered via a subcutaneous osmotic pump (implanted during the same procedure) at a continuous rate of 1 mg/kg/day. D. Pooled blood glucose profiles of animal over 40 days with clear dysfunction for Tac+ islets during the presence of Tac. Vertical dotted line indicates tacrolimus treatment cessation and marks a gradual recovery of Tac+ grafts. Horizontal continuous line at y=11 indicates the normoglycemia limit. Graft recovery nephrectomy was again performed on day 30. E. Mean time-to-euglycemia after transplant showing Tac+AAGP™ mice reversing diabetes earlier (p<0.001, log-rank, Mantel-cox test). […] These differences were not observed in the Tac+AAGP™ group.
# To further support these findings a transplant experiment was performed in a syngeneic diabetic mouse transplant model with continuous treatment with tacrolimus to resemble clinical practice.
# To make our experiments more clinically relevant, a new in vivo syngeneic mouse transplant model was performed, with tacrolimus as a continuous treatment by means of a subcutaneous osmotic pump. It was observed that the functional impairment of transplanted islets occurred immediately after starting administration of the CNI and lasted during the entire treatment period (7 days).
# [4] = system: human islets; experiment: Extracellular ROS in culture media, Acridan Lumigen PS-3 assay; format: cell-based; conditions: media 24 hr after tacrolimus exposure, ± AAGP
# Method: Frozen samples from all groups are utilized to determine reactive oxygen species (ROS) in the culture media, using the Acridan Lumigen™ PS-3 assay (Amershan ECL Plus kit, Fisher Scientific Inc. Ottawa, ON, Canada) (18). In this assay Acridan Lumigen™ PS-3 is excited by reactive oxygen and nitrogen species (RNS) in the presence of hydrogen peroxide, producing chemiluminescense at 430 nm. Media samples are flash-frozen with liquid nitrogen and stored until the assay is performed. CMRL culture media alone is used as a control, and results are expressed as fold-change increase compared to the control media.
# [5] = system: human islets; experiment: Glucose-stimulated insulin secretion (GSIS) perifusion assay; format: cell-based; conditions: 24 h ± AAGP then 24 hr tacrolimus 10 ng/mL; Tac− 158.8
# Method: Islet secretory function is assessed by monitoring in vitro insulin secretory profile during continuous glucose stimulation, as described by Cabrera et al Cell transplantation 2008;16(10):1039-1048. This in vitro perifusion assay is a modality of continuous Glucose-Stimulated Insulin Secretion (GSIS) test to stress islets in alternating normoglycemic and hyperglycemic environment to model physiological islet response. Supernatants from the perifusion assay are collected and insulin levels are determined using a commercially available ELISA kit (Insulin ELISA kit. Mercodia Inc. Pittsburgh, PA, USA). Results are expressed as fold-change of insulin secretion compared to the low (2.8 mMol) glucose stimulation baseline, normalized for 100 IEQ.
smiles,measurement,setting,value
"C=CC[C@@H]1/C=C(\C)C[C@H](C)C[C@H](OC)[C@H]2O[C@@](O)(C(=O)C(=O)N3CCCC[C@H]3C(=O)O[C@H](/C(C)=C/[C@@H]3CC[C@@H](O)[C@H](OC)C3)[C@H](C)[C@@H](O)CC1=O)[C@H](C)C[C@@H]2OC.O [Tac+, tacrolimus]",calcium concentration in islets,[1],neither tacrolimus nor AAGP™ affected the calcium concentration
same,IPGTT AUC,"[2]; 60 days post-transplant, glucose bolus 3 g/kg, Tac− 92.63, naïve 71.43",149.8
same,insulin content of recovered graft,[2]; after 60 days of transplant,30.86 ng/mL
same,blood glucose over 60 days post-transplant,"[2]; marginal islet mass model, n=7 per group",all mice remained hyperglycemic
same,graft function / period to achieve euglycemia,"[3]; AAGP in culture media 1 hour prior to transplant, tacrolimus 1 mg/kg/day by osmotic pump",unable to effectively secrete insulin and return animals to euglycemic state
same,IPGTT AUC under tacrolimus treatment,"[3]; initial IPGTT (7 days), tacrolimus 1 mg/kg/day",101
same,extracellular ROS (fold-increase vs control media),[4],substantial increase in ROS
same,GSIS perifusion AUC,[5],8.22

# Source: patent US12521419B2, “Use of anti-aging glycopeptides to enhance pancreatic cell health, survival and improve transplant outcome” (Protokinetix Inc., priority 2014, dated 2026)
